Laboratory results taken from the Deep4Chem optical property database.

Assay: solvent given as SMILES

## CN(C)c1ccc(-c2ccc(-c3cc(N4CCCCC4)c(C#N)c4c3-c3ccccc3CC4)s2)cc1
In C1CCCCC1
  emission maximum: 491 nm
In C1CCOC1
  emission maximum: 537 nm
In CN(C)C=O
  emission maximum: 590 nm
In CS(C)=O
  emission maximum: 570 nm
In Cc1ccccc1
  emission maximum: 515 nm
In ClC(Cl)Cl
  emission maximum: 540 nm

## O=c1c2cc(F)c(O)cc2sc2cc(O)c(F)cc12
In CCO
  emission maximum: 465 nm

## COC(=O)c1ccc(-c2ccc3c(c2)C(=O)c2cc(-c4ccc(C(=O)OC)cc4)ccc2-3)cc1
In C1CCOC1
  emission maximum: 366 nm

## COc1ccccc1-c1nc(-c2ccccc2)c2ccccn12
In C1CCCCC1
  emission maximum: 477 nm
In CC#N
  emission maximum: 479 nm
In CO
  emission maximum: 475 nm
In ClCCl
  emission maximum: 479 nm
In O
  emission maximum: 481 nm

## O=P1(c2ccccc2)C2=C(c3ccccc31)S(=O)(=O)c1ccccc12 (configuration not stated)
In C1CCCCC1
  emission maximum: 453 nm
In CC#N
  emission maximum: 465 nm
In CCO
  emission maximum: 471 nm
In ClCCl
  emission maximum: 466 nm

## c1ccc(N(c2ccccc2)c2c3ccccc3cc3ccccc23)cc1
In Cc1ccccc1
  emission maximum: 489 nm

## Cn1c(=O)c(/N=N/c2ccc(S(=O)(=O)O)c3ccccc23)c(O)c2ccccc21
In C1CCOC1
  emission maximum: 548 nm
In CC(C)=O
  emission maximum: 564 nm
In CCOC(C)=O
  emission maximum: 555 nm
In CO
  emission maximum: 562 nm
In CS(C)=O
  emission maximum: 571 nm
In Cc1ccccc1
  emission maximum: 540 nm
In ClCCl
  emission maximum: 541 nm
In O
  emission maximum: 582 nm

## COc1ccc(C2=C(c3ccc(C)cc3)C(c3ccccc3)=[N+]3C2=Nc2c(-c4ccc(OC)cc4)c(-c4ccc(C)cc4)c(-c4ccccc4)n2[B-]3(F)F)cc1
In Cc1ccccc1
  emission maximum: 709 nm

## CC(C)c1cccc(C(C)C)c1-n1c(=O)c2cc3nc(-c4ccccc4)c4cc5c(=O)n(-c6c(C(C)C)cccc6C(C)C)c(=O)c6cc7nc(-c8ccccc8)c8cc(c1=O)c2c1c3c4c(c65)c7c81
In ClC(Cl)Cl
  emission maximum: 502 nm

## CC(C)(C)NC(=O)c1ccc(-c2cc3ccccc3o2)c2ccc3c4ccccc4c4ccccc4c3c12
In ClCCl
  emission maximum: 441 nm

## COc1cc2c(cc1OC)C1=C3C(=O)N4C=Cc5cc(OC)c(OC)cc5C4=C3C(=O)N1C=C2
In CN(C)C=O
  emission maximum: 602 nm
In ClC(Cl)Cl
  emission maximum: 597 nm

## CN(C)CCN(Cc1c2ccccc2c(CN(CCN(C)C)c2ccc([N+](=O)[O-])cc2[N+](=O)[O-])c2ccccc12)c1ccc([N+](=O)[O-])cc1[N+](=O)[O-]
In C1CCCCC1
  emission maximum: 416 nm
In C1CCOC1
  emission maximum: 419 nm
In CC#N
  emission maximum: 389 nm
In CC(C)=O
  emission maximum: 387 nm
In CCO
  emission maximum: 388 nm
In CN(C)C=O
  emission maximum: 424 nm
In CO
  emission maximum: 389 nm
In ClC(Cl)Cl
  emission maximum: 417 nm

## COC(=O)C[C@H](Cc1c[nH]c2ccccc12)NC(=O)[C@H](CC(=O)N[C@@H](CC1=CCc2ccccc21)C(=O)OC)NC(=O)[C@H](Cc1c[nH]c2ccccc12)NC(=O)OC(C)(C)C
In CC#N
  emission maximum: 334 nm
In CCOC(C)=O
  emission maximum: 330 nm
In CO
  emission maximum: 338 nm

## Cc1cc(C)c(B(c2cc(C#Cc3ccccc3)sc2-c2sc(C#Cc3ccccc3)cc2P(=O)(c2ccccc2)c2ccccc2)c2c(C)cc(C)cc2C)c(C)c1
In CO
  emission maximum: 560 nm

## Cc1nc(-c2cc(F)ccc2O)n2c1CCCC2
In ClCCl
  emission maximum: 464 nm

## CN(C)c1ccc(C#Cc2ccccc2)cc1
In C1CCCCC1
  emission maximum: 344.99 nm
In C1CCOC1
  emission maximum: 386 nm
In C1COCCO1
  emission maximum: 372.49 nm
In CC1CCCO1
  emission maximum: 377.5 nm
In CC#N
  emission maximum: 415.51 nm
In CC(C)=O
  emission maximum: 410.49 nm
In CC(C)CC(C)(C)C
  emission maximum: 342.99 nm
In CC(C)O
  emission maximum: 365 nm
In CCCCCCCCCCCCCCCC
  emission maximum: 346.98 nm
In CCCCCCCCCCCCCCCCCl
  emission maximum: 360.49 nm
In CCOC(C)=O
  emission maximum: 382.5 nm
In CCOCC
  emission maximum: 368.5 nm
In CN(C)C=O
  emission maximum: 418.5 nm
In CO
  emission maximum: 372 nm
In CS(C)=O
  emission maximum: 423.5 nm
In Cc1ccccc1
  emission maximum: 366.01 nm

## Cc1c(C)n2c(COC(=O)c3ccccc3I)c(C)c(=O)n2c1=O
In CCO
  emission maximum: 461 nm

## CCOC(=O)/N=c1/oc2c(OC)cccc2cc1C#N
In ClCCl
  emission maximum: 465 nm

## c1cc2ccc1-c1ccc(cc1)-c1ccc([se]1)-c1ccc(cc1)-c1ccc(cc1)-c1ccc([se]1)-c1ccc(cc1)-c1ccc(cc1)-c1ccc-2[se]1
In C1CCOC1
  emission maximum: 560 nm

## c1ccc(-c2nn(-c3ccccc3)c3nc4ccccc4cc23)cc1
In C1CCCCC1
  emission maximum: 443.66 nm
In C1CCOC1
  emission maximum: 467.73 nm
In CC#N
  emission maximum: 478.01 nm
In CC(C)=O
  emission maximum: 472.59 nm
In CCCCCl
  emission maximum: 462.96 nm
In CCCCOCCCC
  emission maximum: 454.96 nm
In CN(C)C=O
  emission maximum: 476.64 nm

## CCC(CC)COC1=CC2=C3c4cc(OCC(CC)CC)c(-c5ccccc5)n4[B-](F)(F)[n+]4nnn(c43)[B-](F)(F)[N+]2=C1c1ccccc1
In C1CCOC1
  emission maximum: 725 nm
In CC#N
  emission maximum: 721 nm
In ClCCl
  emission maximum: 730 nm

## OC1(c2ccc(-c3cccs3)s2)CCC(c2ccccc2)CC1 (configuration not stated)
In C1CCOC1
  emission maximum: 471 nm
In CC#N
  emission maximum: 468 nm
In CCCCCC
  emission maximum: 464 nm
In CCO
  emission maximum: 460 nm
In OCCOCCO
  emission maximum: 384 nm
In c1ccncc1
  emission maximum: 385 nm

## O=C(O)COc1cccc(-c2c3nc(cc4ccc([nH]4)c(-c4cccc(OCC(=O)O)c4)c4nc(cc5ccc2[nH]5)C=C4)C=C3)c1
In CS(C)=O
  emission maximum: 633 nm

## CCCCCCCCCc1csc2cc(-c3cc(-c4cc5scc(CCCCCCCCC)c5s4)c4ccc5c(-c6cc7scc(CCCCCCCCC)c7s6)cc(-c6cc7scc(CCCCCCCCC)c7s6)c6ccc3c4c65)sc12
In ClC(Cl)Cl
  emission maximum: 490 nm

## O=C(O)CCCOc1cc2ccc3cccc4ccc(c1)c2c34
In CO
  emission maximum: 382 nm

## CC1(C)CC(=O)c2cc(F)c(F)cc2N1
In CC#N
  emission maximum: 435 nm
In CCO
  emission maximum: 472 nm

## CCCCCCCCCC1(CCCCCCCCC)c2cc(C#Cc3ccc(/C=C/c4ccc(N(CCCCCCCC)CCCCCCCC)cc4)cc3)ccc2-c2ccc(C#Cc3ccc(/C=C/c4ccc(N(CCCCCCCC)CCCCCCCC)cc4)cc3)cc21
In Cc1ccccc1
  emission maximum: 464 nm

## CCCCN1/C(=C/C=C/C2=[N+](C)c3ccccc3C2(C)C)C(C)(C)c2cc(OC)ccc21
In CS(C)=O
  emission maximum: 585 nm

## C(=C\c1cnccn1)/c1ccc2nccnc2c1
In CCCCCC
  emission maximum: 403 nm
In CCO
  emission maximum: 435 nm
In CO
  emission maximum: 443 nm
In ClCCl
  emission maximum: 417 nm
In c1ccccc1
  emission maximum: 410 nm

## CCN(CC)c1ccc(-c2nc(Oc3ccc(-c4nc5ccc(Cl)cc5o4)cc3)nc(Oc3ccc(-c4nc5ccc(Cl)cc5o4)cc3)n2)cc1
In CN(C)C=O
  emission maximum: 424 nm

## c1ccc2c(-c3cncnc3)c3ccccc3c(-c3cncnc3)c2c1
In CCO
  emission maximum: 417 nm
In ClCCl
  emission maximum: 417 nm

## CCCCCCCCCCCCOc1ccc(C2=C3C(=O)N(CC(OCC)OCC)C(c4ccc(OCCCCCCCCCCCC)c(OCCCCCCCCCCCC)c4)=C3C(=O)N2CC(OCC)OCC)cc1OCCCCCCCCCCCC
In ClC(Cl)Cl
  emission maximum: 541 nm

## COc1cccc(/C=C/C(=O)c2c(O)cc(C)oc2=O)c1
In CC#N
  emission maximum: 500 nm
In ClCCl
  emission maximum: 490 nm

## c1ccc2cc(-n3c4ccccc4c4ccccc43)ccc2c1
In C1CCCCC1
  emission maximum: 362 nm
In C1CCOC1
  emission maximum: 374 nm
In CC#N
  emission maximum: 388 nm
In CCO
  emission maximum: 379 nm
In CCOC(C)=O
  emission maximum: 372 nm
In CCOCC
  emission maximum: 368 nm
In CO
  emission maximum: 382 nm
In Cc1ccccc1
  emission maximum: 364 nm
In ClC(Cl)Cl
  emission maximum: 376 nm

## OCc1cc2c(cc3ccc4cccc5ccc2c3c45)[nH]1
In CCOC(C)=O
  emission maximum: 404 nm

## C#Cc1ccc2ccc3oc(=O)cc(C)c3c2c1
In CCO
  emission maximum: 403 nm

## CN(C)c1ccc(C2=Nc3sc4ccccc4[n+]3[B-](F)(F)O2)cc1
In C1CCOC1
  emission maximum: 469 nm
In CC#N
  emission maximum: 486 nm
In CC(C)=O
  emission maximum: 482 nm
In Cc1ccccc1
  emission maximum: 450 nm
In ClCCl
  emission maximum: 467 nm

## F[B-]1(F)n2c(-c3cccs3)cc(-c3cccs3)c2N=C2C(c3cccs3)=CC(c3cccs3)=[N+]21
In C1CCOC1
  emission maximum: 763 nm
In CC#N
  emission maximum: 757 nm
In CS(C)=O
  emission maximum: 775 nm
In Cc1ccccc1
  emission maximum: 765 nm
In ClCCl
  emission maximum: 764 nm

## c1ccc2cc3c(cc2c1)-c1cccc2cc4ccccc4c-3c12
In CCCCCCC
  emission maximum: 471 nm

## c1ccc2c(c1)[nH]c1c3[nH]c4ccccc4c3c3nsnc3c21
In CN(C)C=O
  emission maximum: 493 nm
In Cc1ccccc1
  emission maximum: 456 nm
In ClCCl
  emission maximum: 489 nm

## CCCCCCN(CCCCCC)c1ccc(C#Cc2ccc(C#N)cc2)cc1
In CC#N
  emission maximum: 530 nm
In CO
  emission maximum: 514 nm
In ClCCl
  emission maximum: 484 nm

## O=c1cc2c(-c3c(O)c4cccc5ccc6oc(=O)cc3c6c54)c(O)c3cccc4ccc(o1)c2c43
In CC1CCCO1
  emission maximum: 552 nm

## c1cc2ccc3ccc4cc3c2cc1c1ccc2ccc3ccc(cc3c2c1)c1ccc2ccc3ccc4cc3c2c1
In Cc1ccccc1
  emission maximum: 419 nm

## CN(C)c1ccc(N2c3sc4ccccc4c3Sc3c2sc2ccccc32)cc1
In ClCCl
  emission maximum: 556 nm

## CC(C)(C)c1ccc2c(c1)c1cc(C(C)(C)C)ccc1n2-c1ccccc1-c1nccnc1C#N
In Cc1ccccc1
  emission maximum: 490 nm
In c1cc(-n2c3ccccc3c3ccccc32)cc(-n2c3ccccc3c3ccccc32)c1
  emission maximum: 483 nm

## F[B-]1(F)n2c(ccc2-c2cccs2)C(c2ccc(Br)cc2)=C2C=CC(c3cccs3)=[N+]21
In ClC(Cl)Cl
  emission maximum: 643 nm

## CC[n+]1ccc(/C=C/c2cc(OC)c(C=O)cc2OC)cc1
In C1CCOC1
  emission maximum: 557 nm
In CC#N
  emission maximum: 566 nm
In CN(C)C=O
  emission maximum: 565 nm
In Cc1ccccc1
  emission maximum: 554 nm
In ClCCl
  emission maximum: 561 nm
In O
  emission maximum: 558 nm

## COc1cc(OC)cc(C2=C3C(C)=C(I)C(/C=C/c4ccsc4)=[N+]3[B-](F)(F)n3c(/C=C/c4ccsc4)c(I)c(C)c32)c1
In C1CCOC1
  emission maximum: 680 nm
In CS(C)=O
  emission maximum: 692 nm
In ClCCl
  emission maximum: 682 nm

## COc1ccc(C2=c3sc(-c4ccc(OC)cc4)c(-c4ccc(OC)cc4)c3=[N+]3C2=Nc2c(-c4ccc(OC)cc4)c4sc(-c5ccc(OC)cc5)c(-c5ccc(OC)cc5)c4n2[B-]3(F)F)cc1
In ClC(Cl)Cl
  emission maximum: 816 nm

## Cc1ccccc1N1c2sc3ccccc3c2Sc2sc3ccccc3c21
In ClCCl
  emission maximum: 564 nm
